Experimental findings from paper PMC9365994, “Small molecules to regulate the GH/IGF1 axis by inhibiting the growth hormone receptor synthesis” (Frontiers in Endocrinology, 2022) are described below.

SMILES strings stand for the structures. Entries after “also recorded” stand apart in the source; their conditions may differ.

The test system of assay [1] is MM231 breast cancer cells. The assay is described as follows: MM231 orthotopic xenograft, tumor growth. The format is in vivo, mice. Particulars: 1 and 5 mg/kg, 3 injections per week, 3 weeks. Here is the method:
Female RAG2^-/-; IL-2Rgc^-/- immune deficient mice ([37]) were purchased from Envigo (Horst, The Netherlands). Orthotopic transplantations, longitudinal tumor measurements and bioluminescence imaging were performed as described ([38]). Mice were treated when tumors reached a volume of >50 mm^3, three times weekly for a period of three weeks with the indicated drug concentrations.
BM001, BM002, and BM003 were used in mice xenografted with MM231 breast cancer cells that are GH-responsive both for growth and drug resistance ([42]–[45]). The cells were orthotopically grafted into the inguinal mammary gland, and drug treatments started when tumors reached a volume of >50 mm^3. We used a treatment regimen of 3 injections per week (1 and 5 mg/kg) during 3 weeks (9 mice/group) ( Figure 6 ). Animals were killed when tumor volume exceeded 150 mm^3 or mice presented lung metastasis upon bioluminescence imaging measurements. […] Drug withdrawal effects were not studied until now. […] We observed no adverse side effects neither on appetite and behavior ([46]). […] We next assessed if the identified drugs indeed target the GH/IGF1 pathway and consequently, if they result in a decrease in liver weight and IGF1 levels, as observed in GHR knockout mice and Laron patients ([47]).

The target of assay [2] is T1, GHR (Homo sapiens, UniProt P10912).
T1 construct: endogenous in cells; host or cells: IM-9 human B lymphoblasts
T1 sequence (P10912 19-638): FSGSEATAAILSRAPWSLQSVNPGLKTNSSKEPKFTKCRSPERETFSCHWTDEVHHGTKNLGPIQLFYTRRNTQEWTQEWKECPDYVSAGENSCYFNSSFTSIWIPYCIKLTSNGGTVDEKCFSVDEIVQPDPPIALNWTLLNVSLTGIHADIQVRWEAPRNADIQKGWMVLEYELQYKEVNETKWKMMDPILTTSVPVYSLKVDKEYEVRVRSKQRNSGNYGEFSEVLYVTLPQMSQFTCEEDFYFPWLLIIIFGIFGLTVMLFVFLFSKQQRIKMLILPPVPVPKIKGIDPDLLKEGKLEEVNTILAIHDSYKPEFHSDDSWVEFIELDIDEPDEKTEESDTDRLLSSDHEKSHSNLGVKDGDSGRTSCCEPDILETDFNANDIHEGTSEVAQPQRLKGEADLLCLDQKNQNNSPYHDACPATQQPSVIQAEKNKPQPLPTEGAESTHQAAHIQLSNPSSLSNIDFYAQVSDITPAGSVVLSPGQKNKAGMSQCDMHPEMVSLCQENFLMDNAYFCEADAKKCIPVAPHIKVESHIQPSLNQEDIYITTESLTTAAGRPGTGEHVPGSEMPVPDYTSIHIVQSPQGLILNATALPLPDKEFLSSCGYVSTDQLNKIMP
The assay is described as follows: Endogenous GHR levels in IM-9 human B lymphoblasts (immunoprecipitation). The format is cell-based. To be noted: for levels of GHR: IM-9 lymphoblasts, in 4 h. Here is the method:
For GHR-Jak2 co-immunoprecipitations, the cells were lysed in 20 mM Tris pH 8.0, 150 mM NaCl, 0.5% NP40, 1 mM PMSF, […]. Cell lysates were centrifuged to pellet the nuclei and the supernatants were used for GHR isolation in 1% Triton X-100, 0.5% SDS,0.25% sodium deoxycholate, 0.5% BSA, and inhibitors via immune precipitation with anti-GHR and protein A beads. Immunoprecipitates were subjected to reducing SDS-PAGE and transferred to Immobilon-FL polyvinylidenedifluoride membrane (Millipore). Blots were immunostained with the indicated primary antibodies followed by Alexa Fluor 680, Alexa-800 IRDye conjugated anti-mouse or anti-rabbit antibodies. Detection was performed with an Odyssey system (LI-COR Biosciences).
In the primary screen we used soluble fos-zipped GHR cytosolic tails that act in signaling complexes if co-expressed with Jak2. Initially, 6 scenarios were anticipated that can lower these signals. In the discovery itinerary we used the flow cytometer assay twice to find drugs that act on the GH-induced Jak2/STAT5 pathway and not on the identical GM/CSF-driven pathway ( Figure 3 , Figure S8 ). As the GM/CSF-induced Jak2/STAT5 pathway was not affected by the 2 hit compounds (BM004 and BM012), that served as prototypes for the final analogue selection, we excluded the possibility that they act on the Jak2 signaling pathway directly (scenario 1). To test scenario 2 (inhibition of fos-GHRct expression), we treated GHR-expressing Hek293T cells with a selection of drugs from the cell proliferation studies and analyzed the GHR species. […] The ratio between the amounts of GHR in the ER and at the PM reflects a steady state of synthesis (ER) and transport to the PM followed by endocytosis and degradation in the lysosomes. […] Because both species diminished, the drugs either inhibit the synthesis of GHR molecules or induce rapid GHR degradation in the ER. To decide between these possibilities, we performed in vitro translation experiments. […]
Figure 7 Effect of drugs on protein synthesis. […] The blots were detected with anti-GHR(B). […]

Consider `Cc1nc(N)nc(N)c1/C=C/C1(c2ccc(C(F)(F)F)cc2)CC1` [BM001], for which the “tumor growth / tumor volume (in words)” value in assay [1] was “strong decrease; also recorded: continued to suppress tumor growth; also recorded: inhibit tumor growth; also recorded: tumor regression”. Also, the “GHR in IM-9 cells” value in assay [2] (drugs 4 hrs) is reported as “depleted”.

On to `Cc1c(-c2cccc(C#N)c2)ccc2nc(N)nc(N)c12` [BM002], for which the “tumor growth / tumor volume (in words)” value in assay [1] is recorded as “started to increase again; also recorded: inhibit tumor growth”. For the same compound, in assay [2], the “levels of GHR” value was ~ 60%.

Consider `COc1cc(CN(C)c2ccc3nc(N)nc(N)c3c2)cc(OC)c1OC` [BM003], for which the “tumor growth / tumor volume (in words)” value in assay [1] is given as “started to increase again; also recorded: inhibit tumor growth”. Besides, the “levels of GHR” value in assay [2] is given as ~ 60%.
